Laboratory results published in US20110003776A1, “[…] DERIVATIVES, PHARMACEUTICAL COMPOSITIONS AND THERAPEUTIC TREATMENT THEREOF” (TRUSTEES OF BOSTON UNIVERSITY, priority 2009, published 2011).

Tested on: Mycobacterium tuberculosis
Experiment: microplate Alamar Blue assay (MABA) against Mycobacterium tuberculosis
Format: cell-based
Details: MIC and IC50 values only in Scheme 5
Source text: The skilled artisan is well aware of the methods for measuring growth of mycobacteria. A common method of detecting growth in mycobacterial cultures involves the use of […]. An exemplary method is the microplate Alamar Blue assay (MABA), described in Falzari, et al., Antimicrob. Agents Chemother. 2005, 49, 1447-1454 (2005), content of which is herein incorporated by reference.
The library compounds of ureas 7, amides 8, and sulfonamides 9 were screened for activity against Mycobacterium tuberculosis using the microplate Alamar Blue assay (MABA), described in Falzari, et al., Antimicrob. Agents Chemother. 2005, 49, 1447-1454 (2005), content of which is herein incorporated by reference. The MIC values were established after initial positive hits were identified (>80% inhibition at 10 μg/mL). Cytotoxicity assays were performed on Vero cells with IC50 values greater than 50 μg/mL under the assay conditions. Activities were subsequently validated in duplicate assays with resynthesized compound.

| SMILES | activity against Mycobacterium tuberculosis |
| --- | --- |
| COc1ccc(NC(=O)N2CCc3nc(-c4ccc(OC)cc4C)c4c(c3C2)CO[C@@H](c2ccccc2)C4)cc1 [7{4,2}, (R)-6-(4-Methoxy-2-methylphenyl)-N-(4-methoxyphenyl)-8-phenyl-3,4,7,8-tetrahydro-1H-pyrano[4,3-c][1,6]naphthyridine-2(10H)-carboxamide] | significant activities |
| COc1ccc(-c2nc3c(c4c2C[C@H](c2ccccc2)OC4)CN(S(=O)(=O)c2ccc(C#N)cc2)CC3)c(C)c1 [9{4,4}] | significant activities |
| COc1ccc(-c2nc3c(c4c2C[C@H](c2ccccc2)OC4)CN(C(=O)N[C@H](C)c2ccccc2)CC3)c(C)c1 [7{4,1}] | significant activities |
